# In publication PMC11859184, “Synthesis and Evaluation of ^68Ga- and ^177Lu-Labeled [diF-Pro^14]Bombesin(6−14) Analogs for Detection and Radioligand Therapy of Gastrin-Releasing Peptide Receptor-Expressing Cancer” (Pharmaceuticals, 2025):
# How the values were obtained:
# GRPR = target: T1, GRPR (Homo sapiens, UniProt P30550); assay: Fluorometric intracellular calcium release assay using PC-3 cells; format: cell-based; details: for intracellular calcium release: 50 nM ligand, n = 4
# T1 construct: host or cells: PC-3 cells
# T1 sequence (P30550 whole entry): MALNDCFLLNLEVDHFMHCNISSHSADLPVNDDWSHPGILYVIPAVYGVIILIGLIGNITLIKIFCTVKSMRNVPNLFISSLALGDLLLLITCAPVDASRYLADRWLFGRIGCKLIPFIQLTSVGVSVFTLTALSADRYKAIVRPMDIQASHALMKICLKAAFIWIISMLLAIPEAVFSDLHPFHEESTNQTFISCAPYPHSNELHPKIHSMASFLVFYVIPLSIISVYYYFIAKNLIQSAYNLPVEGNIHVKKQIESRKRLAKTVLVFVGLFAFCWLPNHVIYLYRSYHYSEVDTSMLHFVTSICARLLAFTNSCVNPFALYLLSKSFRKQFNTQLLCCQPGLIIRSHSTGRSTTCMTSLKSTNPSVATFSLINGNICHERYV
# Method: The agonist/antagonist characteristics of LW02060, Ga-LW02060, Lu-LW02060, LW02080, Ga-LW02080, and Lu-LW02080 were determined following published procedures. The PC-3 cells were obtained from ATCC (via Cedarlane, Burlington, ON, Canada). A 96-well clear bottom black plate was seeded with 5 × 10^4 PC-3 cells in 100 μL growth media per well 24 h before the assay. The loading buffer (100 μL/well) containing a calcium-sensitive dye (FLIPR Calcium 6 assay kit from Molecular Devices, San Jose, CA, USA) was added into the 96-well plate, followed by 1 h incubation at 37 °C. The plate was then transferred into a FlexStation 3 microplate reader (Molecular Devices, San Jose, CA, USA). LW02060 (50 nM), Ga-LW02060 (50 nM), Lu-LW02060 (50 nM), LW02080 (50 nM), Ga-LW02080 (50 nM), Lu-LW02080 (50 nM), [D-Phe^6,Leu-NHEt^13,des-Met^14]Bombesin(6–14) (50 nM, antagonist control), bombesin (50 nM, agonist control), adenosine triphosphate (ATP, 50 nM, positive control), or DPBS (blank control) was added, and the fluorescent signals were measured for 2 min (λEx = 485 nm; λEm = 525 nm; n = 4). The relative fluorescent units (RFU = max − min) were calculated to determine the agonistic/antagonistic characteristics of LW02060, Ga-LW02060, Lu-LW02060, LW02080, Ga-LW02080, and Lu-LW02080, respectively.
# PC-3 tumor-bearing mice [1] = assay: Ex vivo biodistribution of 68Ga-labeled tracers in PC-3 tumor-bearing mice; details: 1 h pi; for reduction of average tumor uptake by co-injection of blocking agent: 100 µg blocking agent
# Method: PET/CT imaging and biodistribution studies were conducted using male NOD.Cg-Rag1^tm1Mom Il2rg^tm1Wjl/SzJ (NRG) mice following previously published procedures. The studies were carried out in compliance with the guidelines established by the Canadian Council on Animal Care and approved by Animal Ethics Committee of the University of British Columbia (protocol number A20-0113, approved on 30 September 2022). The mice were anaesthetized and subcutaneously implanted with 5 × 10^6 PC-3 cells (100 µL; 1:1 PBS/Matrigel) behind the left shoulder. PET/CT imaging and biodistribution studies were performed once the tumors reached a diameter of 5–8 mm, typically after approximately 4 weeks of growth.
# For ex vivo biodistribution studies, the mice were injected with the ^68Ga-labeled tracer (2–4 MBq) via a lateral caudal tail vein. For blocking [^68Ga]Ga-LW02060, the mice were co-injected with 100 μg of [D-Phe^6,Leu-NHEt^13,des-Met^14]Bombesin(6–14). For blocking [^68Ga]Ga-LW02080, the mice were co-injected with 100 μg of its nonradioactive standard Ga-LW02080. At 1 h pi, the mice were euthanized by CO2 inhalation. Blood and organs/tissues of interest were collected, weighed, and counted using a gamma counter.
# [2] = In vivo stability study (radio-HPLC of plasma and urine); details: NRG mice, 15 min pi; for remaining intact in plasma: n = 3
# Method: For in vivo stability studies, [^68Ga]Ga-LW02060 or [^68Ga]Ga -LW02080 (5.23–12.9 MBq) was injected into healthy male NRG mice (n = 3) tough a lateral caudal tail vein. At 15 min pi, mice were anaesthetized and euthanized, followed by collection of the urine and blood samples. The plasma was extracted from whole blood by adding an equal volume of CH3CN, followed by vortexing, centrifugation, and collection of the supernatant. The plasma and urine samples were analyzed via radio-HPLC.
# PC-3 tumor-bearing mice [3] = assay: Ex vivo biodistribution of 177Lu-labeled ligands in PC-3 tumor-bearing mice; details: 1 h pi, 100 µg [D-Phe6,Leu-NHEt13,des-Met14]Bombesin(6-14)
# Method: SPECT/CT imaging was conducted using an MI Labs (Houten, The Netherlands) U-SPECT-II/CT scanner with a custom-made ultra-high sensitivity big mouse collimator (2 mm pinhole size) following published procedure. The experiments were obtained in accordance with the same protocol established in the PET/CT imaging and ex vivo biodistributions section. The mice were used for SPECT/CT imaging and ex vivo biodistributions studies once the tumors reached a diameter of 5–8 mm. PC-3 tumor-bearing mice were sedated (2.5% isoflurane in O2) and injected with 31.4–36.9 MBq of the ^177Lu-labeled ligand through a lateral caudal tail vein. The mouse was imaged at 1, 4, 24, 72, and 120 h pi. At each time point, a 5 min CT scan was performed with 615 μA and 60 kV parameters for localization and attenuation, followed by two 30 min static SPECT scans in list mode with an energy window centered around 208 keV. The U-SPECT II software was used to reconstruct data, and the images were decay corrected to the time of injection with PMOD v 3.402 (PMOD Technologies GmbH, Fallanden, Switzerland).
# For ex vivo biodistribution studies, the mice were injected with ~3–5 MBq of the ^177Lu-labeled ligand (n = 5). At 1, 4, 24, 72, and 120 h post-injection, the mice were anesthetized with 2% isoflurane, euthanized by CO2 inhalation, and the tissues/organs of interest were […] for radioactivity counting. The blocking study was performed at 1 h pi via co-injection of the ^177Lu-labeled ligand with 100 μg of [D-Phe^6,Leu-NHEt^13,des-Met^14]Bombesin(6–14).
molecule,measurement,setting,value
"Nc1ncnc2c1ncn2[C@@H]1O[C@H](COP(=O)(O)OP(=O)(O)OP(=O)(O)O)[C@@H](O)[C@H]1O [ATP, adenosine triphosphate, reference compound]",intracellular calcium release,GRPR,286 ± 9.44 RFU
CC(C)C[C@H](NC(=O)[C@H](Cc1cnc[nH]1)N(C)C(=O)CNC(=O)[C@@H](NC(=O)[C@H](C)NC(=O)[C@H](Cc1c[nH]c2ccccc12)NC(=O)[C@H](CCC(N)=O)NC(=O)[C@@H](Cc1ccccc1)NC(=O)CN1CCC(NC(=O)CN2CCN(CC(=O)O)CCN(CC(=O)O)CCN(CC(=O)O)CC2)CC1)C(C)(C)C)C(=O)N1CC(F)(F)C[C@H]1C(N)=O [[^68Ga]Ga-LW02060] [metal not drawn],tumor uptake relative to [68Ga]Ga-LW02080,PC-3 tumor-bearing mice [1],2.3 fold
same,tumor uptake relative to previously reported [68Ga]Ga-LW02056,PC-3 tumor-bearing mice [1],1.9 fold
same,uptake in all other collected organs/tissues (except tumor xenografts and kidneys),PC-3 tumor-bearing mice [1],lower than 1 %ID/g
same,reduction of average tumor uptake by co-injection of blocking agent,PC-3 tumor-bearing mice [1],64%
same,intact tracer in urine,[2],No intact tracer was detected
same,remaining intact in plasma,[2],> 99%
CC(C)C[C@@H](CN1CC(F)(F)C[C@H]1C(N)=O)NC(=O)[C@H](Cc1c[nH]cn1)NC(=O)CN(C)C(=O)[C@@H](NC(=O)[C@H](C)NC(=O)[C@H](Cc1c[nH]c2ccccc12)NC(=O)[C@H](CCC(N)=O)NC(=O)[C@@H](Cc1ccccc1)NC(=O)CN1CCC(NC(=O)CN2CCN(CC(=O)O)CCN(CC(=O)O)CCN(CC(=O)O)CC2)CC1)C(C)C [[^68Ga]Ga-LW02080] [metal not drawn],uptake in all other collected organs/tissues (except tumor xenografts and kidneys),PC-3 tumor-bearing mice [1],lower than 1 %ID/g
same,reduction of average tumor uptake by co-injection of blocking agent,PC-3 tumor-bearing mice [1],77%
same,intact tracer in urine,[2],No intact tracer was detected
same,remaining intact in plasma,[2],87.4 ± 5.34%
CC(C)C[C@H](NC(=O)[C@H](Cc1cnc[nH]1)N(C)C(=O)CNC(=O)[C@@H](NC(=O)[C@H](C)NC(=O)[C@H](Cc1c[nH]c2ccccc12)NC(=O)[C@H](CCC(N)=O)NC(=O)[C@@H](Cc1ccccc1)NC(=O)CN1CCC(NC(=O)CN2CCN(CC(=O)O)CCN(CC(=O)O)CCN(CC(=O)O)CC2)CC1)C(C)(C)C)C(=O)N1CC(F)(F)C[C@H]1C(N)=O [[^177Lu]Lu-LW02060] [metal not drawn],reduction of pancreas uptake by co-injection of blocking agent,PC-3 tumor-bearing mice [3],81%
same,reduction of small intestine uptake by co-injection of blocking agent,PC-3 tumor-bearing mice [3],66%
same,reduction of stomach uptake by co-injection of blocking agent,PC-3 tumor-bearing mice [3],72%
same,reduction of tumor uptake by co-injection of blocking agent,PC-3 tumor-bearing mice [3],66%
CC(C)C[C@@H](CN1CC(F)(F)C[C@H]1C(N)=O)NC(=O)[C@H](Cc1c[nH]cn1)NC(=O)CN(C)C(=O)[C@@H](NC(=O)[C@H](C)NC(=O)[C@H](Cc1c[nH]c2ccccc12)NC(=O)[C@H](CCC(N)=O)NC(=O)[C@@H](Cc1ccccc1)NC(=O)CN1CCC(NC(=O)CN2CCN(CC(=O)O)CCN(CC(=O)O)CCN(CC(=O)O)CC2)CC1)C(C)C [[^177Lu]Lu-LW02080] [metal not drawn],reduction of tumor uptake by co-injection of blocking agent,PC-3 tumor-bearing mice [3],64%
"DOTA-Pip-[D-Phe^6,NMe-Gly^11,Leu^13(ψ)diF-Pro^14]Bombesin(6–14) [LW02080]",agonist/antagonist characteristics,GRPR,GRPR antagonists
same,intracellular calcium release,GRPR,11.4 ± 0.32 RFU
"DOTA-Pip-[D-Phe^6,Tle^10,NMe-His^12,diF-Pro^14]Bombesin(6–14) [LW02060]",agonist/antagonist characteristics,GRPR,GRPR agonists
same,intracellular calcium release,GRPR,377 ± 41.9 RFU
"[D-Phe^6,Leu-NHEt^13,des-Met^14]Bombesin(6–14) [reference compound]",intracellular calcium release,GRPR,16.6 ± 3.84 RFU
bombesin [reference compound],intracellular calcium release,GRPR,371 ± 17.9 RFU
